Experimental data taken from patent US5302610A, “Renal-selective biphenylmethyl imidazole angiotensin II antagonists for treatment of hypertension” (G. D. Searle & Co., priority 1991, dated 1994).

System: AII receptor
Test: Assay C: In Vivo Intraduodenal Pressor Assay Response for AII Antagonists
Set-up: species or system male Sprague-Dawley rats
Protocol: The in vivo AII receptor antagonist activity of Example #5 compound was examined in ganglion-blocked male Sprague-Dawley rats (Harlan Sprague-Dawley, Inc.), weighing 300-400 g, anesthetized with 100 mg/kg i.p. Inactin. Catheters (PE-50) were implanted in a femoral artery and vein to measure mean arterial pressure and to administer compounds, respectively. A tracheal catheter maintained airway patency. For intravenous experiments, autonomic neurotransmission was blocked by treatment with mecamylamine (3 mg/kg i.v.) and atropine (400 μg/kg i.v.). AII (30 ng/kg i.v., 20-25 μl volume) was administered four times at 10 minute intervals to establish a reproducible control pressor response. Example #5 compound was then administered at 1, 3 and 10 mg/kg in separate groups of rats as an intravenous bolus (0.2 ml volume) before rechallenging with AII (30 ng/kg, 20-25 μl volume) for the following 2 hours. For intraduodenal experiments, rats were anesthetized as above, but ganglion blockade was not performed. AII was administered at 100 ng/kg i.v. (20-25 μl volume), and was administered at 10, 30 and 100 mg/kg in separate groups of rats as an intraduodenal bolus (0.2 ml volume). […] The response to AII was calculated as percent of the control response and then the percent inhibition was calculated as 100 minus the percent control response. Duration of action of a test compound was defined as the time from peak percent inhibition to 50% of peak. The test compound was tested in two rats and the values for the two rats were averaged.

CCCCc1nc(Cl)c(CO)n1Cc1ccc(-c2ccccc2C(=O)O)cc1 [Example 5]
% Control of AII Pressor Response (10 mg/kg intraduodenal, 1 min): 100%
% Control of AII Pressor Response (10 mg/kg intraduodenal, 5 min): 94%
% Control of AII Pressor Response (10 mg/kg intraduodenal, 10 min): 99%
% Control of AII Pressor Response (10 mg/kg intraduodenal, 20 min): 85%
% Control of AII Pressor Response (10 mg/kg intraduodenal, 30 min): 91%
% Control of AII Pressor Response (10 mg/kg intraduodenal, 40 min): 91%
% Control of AII Pressor Response (10 mg/kg intraduodenal, 50 min): 95%
% Control of AII Pressor Response (10 mg/kg intraduodenal, 60 min): 93%
% Control of AII Pressor Response (10 mg/kg intraduodenal, 75 min): 95%
% Control of AII Pressor Response (30 mg/kg intraduodenal, 1 min): 48%
% Control of AII Pressor Response (30 mg/kg intraduodenal, 5 min): 48%
% Control of AII Pressor Response (30 mg/kg intraduodenal, 10 min): 44%
% Control of AII Pressor Response (30 mg/kg intraduodenal, 20 min): 28%
% Control of AII Pressor Response (30 mg/kg intraduodenal, 30 min): 34%
% Control of AII Pressor Response (30 mg/kg intraduodenal, 40 min): 42%
% Control of AII Pressor Response (30 mg/kg intraduodenal, 50 min): 41%
% Control of AII Pressor Response (30 mg/kg intraduodenal, 60 min): 53%
% Control of AII Pressor Response (30 mg/kg intraduodenal, 75 min): 74%
% Control of AII Pressor Response (100 mg/kg intraduodenal, 1 min): 28%
% Control of AII Pressor Response (100 mg/kg intraduodenal, 5 min): 19%
% Control of AII Pressor Response (100 mg/kg intraduodenal, 10 min): 15%
% Control of AII Pressor Response (100 mg/kg intraduodenal, 20 min): 14%
% Control of AII Pressor Response (100 mg/kg intraduodenal, 30 min): 9%
% Control of AII Pressor Response (100 mg/kg intraduodenal, 40 min): 5%
% Control of AII Pressor Response (100 mg/kg intraduodenal, 50 min): 13%
% Control of AII Pressor Response (100 mg/kg intraduodenal, 60 min): 10%
% Control of AII Pressor Response (100 mg/kg intraduodenal, 75 min): 13%
